Residues, ends and D or L forms follow the SMILES beside them.
Test system: YES-2 (HLA-A24^+, SCCA^+) esophageal squamous cell carcinoma cells
Test: 6-h 51Cr-release cytotoxicity assay of peptide-stimulated CTLs
Type: cell-based, human
Text: Cultured cells in wells producing IFN-γ in response to a corresponding peptide were collected and further cultured with IL-2 alone for 10-14 days in order to obtain a sufficiently large number of cells to perform a standard 6-h ^51Cr-release assay. The following tumor cell lines were used as targets; YES-1 (HLA-A24^− and SCCA^+ esophageal squamous cell carcinoma), and YES-2 (HLA -A24^+ and SCCA^+ esophageal squamous cell carcinoma). Phytohemagglutinin (PHA)-stimulated blastoid T cells were also used as a negative control. In some experiments, 20 μg/ml of anti-HLA-class I (W6/32, IgG2a) (BioLegend, Camino Santa Fe, San Diego, Calif., USA), anti-HLA-class II (H-DR-1, IgG2a) (kindly provided by Dr. Yasuji NISHIMURA, KUMAMOTO UNIVERSITY, Japan), anti-CD4 (Nu-Th/i, IgG1) (established at Department of Immunology, Kurume University School of Medicine, Japan), or anti-CD8 (Nu-Ts/c, IgG2a) monoclonal antibody (mAb) (established at Department of Immunology, Kurume University School of Medicine, Japan) were added to the wells at the initiation of the assay. An anti-CD14 (JML-H14, IgG2a) mAb (established at Department of Immunology, Kurume University School of Medicine, Japan) was used as a negative control.

CC[C@H](C)[C@H](NC(=O)CNC(=O)[C@H](CC(C)C)NC(=O)[C@H](CC(C)C)NC(=O)[C@H](CCC(N)=O)NC(=O)[C@H](CCC(N)=O)NC(=O)[C@H](CCCNC(=N)N)NC(=O)[C@H](CC(C)C)NC(=O)[C@H](Cc1ccc(O)cc1)NC(=O)[C@@H](N)CCCNC(=N)N)C(=O)O [HIV peptide, RYLRQQLLGI, reference compound] (H-RYLRQQLLGI-OH)
Cytotoxicity of peptide-stimulated CTLs/PBMCs (SCC patients (Pts 2, 5, 7, 8), targets YES-2, YES-1, PHA-stimulated T-cell blasts (FIG. 4B)): did not show any cytotoxicity

CC(C)C[C@H](NC(=O)[C@H](Cc1ccc(O)cc1)NC(=O)[C@H](CCC(=O)O)NC(=O)[C@H](CCC(N)=O)NC(=O)[C@H](CC(C)C)NC(=O)[C@H](Cc1ccccc1)NC(=O)[C@H](CC(C)C)NC(=O)[C@H](Cc1ccc(O)cc1)NC(=O)[C@@H](N)[C@@H](C)O)C(=O)O [SCCA 112, TYLFLQEYL] (H-TYLFLQEYL-OH)
Cytotoxicity of peptide-stimulated CTLs against YES-2 cells: exhibited cytotoxicity against YES-2 cells in an HLA class I-restricted manner

CC(C)C[C@H](NC(=O)[C@H](CO)NC(=O)[C@H](C)NC(=O)[C@H](Cc1ccccc1)NC(=O)[C@H](Cc1c[nH]cn1)NC(=O)[C@H](Cc1ccccc1)NC(=O)[C@H](CO)NC(=O)[C@@H](NC(=O)[C@H](Cc1ccc(O)cc1)NC(=O)[C@@H](N)CCC(N)=O)[C@@H](C)O)C(=O)O [SCCA 215, QYTSFHFASL] (H-QYTSFHFASL-OH)
Cytotoxicity of peptide-stimulated CTLs against YES-2 cells: exhibited cytotoxicity against YES-2 cells in an HLA class I-restricted manner

From patent publication US8030443B2, “Squamous cell carcinoma antigen-derived peptide binding to HLA-A24 molecule” (Kurume University, priority 2005, dated 2011)
